# Target: T1, Met kinase domain (GST fusion protein) (Homo sapiens, UniProt P08581)
# T1 construct: Purified GST fusion protein containing the Met kinase domain
# Test: Met transphosphorylation assay (ELISA, poly(glu-tyr) substrate);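 note: Cell-free ELISA with plate-bound poly(Glu:Tyr 4:1) phosphorylated by GST-fused Met kinase domain plus ATP and Mn2+, phosphotyrosine detected by anti-phosphotyrosine antibody with HRP and ABTS read-out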
# Type: biochemical
# Settings: read-out: Met IC50
# T1 sequence (P08581 1078-1345 limits assumed): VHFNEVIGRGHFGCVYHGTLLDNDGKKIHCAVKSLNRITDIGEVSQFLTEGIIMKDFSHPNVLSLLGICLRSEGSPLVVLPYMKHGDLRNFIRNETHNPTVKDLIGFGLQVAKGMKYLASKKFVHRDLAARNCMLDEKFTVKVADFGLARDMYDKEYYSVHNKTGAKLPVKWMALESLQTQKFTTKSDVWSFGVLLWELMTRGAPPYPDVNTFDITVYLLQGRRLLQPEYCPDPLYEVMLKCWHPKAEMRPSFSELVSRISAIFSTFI
row,IC50 [nM],Structure (SMILES)
1,210,"CC(Oc1nc(-c2ccc(NS(=O)(=O)CCN3CCC(O)CC3)cc2)cnc1N)c1c(Cl)ccc(F)c1Cl (stereo not shown) [II-141, 2-(4-Hydroxy-piperidin-1-yl)-ethanesulfonic acid (4-{5-amino-6-[1-(2,6-dichloro-3-fluoro-phenyl)-ethoxy]-pyrazin-2-yl}-phenyl)-amide]"
2,190,"CC(Oc1nc(-c2ccc(NS(=O)(=O)CCN3CC[C@@H](O)C3)cc2)cnc1N)c1c(Cl)ccc(F)c1Cl (stereo partly drawn) [II-143, 2-((R)-3-Hydroxy-pyrrolidin-1-yl)-ethanesulfonic acid (4-{5-amino-6-[1-(2,6-dichloro-3-fluoro-phenyl)-ethoxy]-pyrazin-2-yl}-phenyl)-amide]"
3,360,"CC(Oc1nc(-c2ccc(NS(=O)(=O)CCN3CCCC3)cc2)cnc1N)c1c(Cl)ccc(F)c1Cl (stereo not shown) [II-144, 2-Pyrrolidin-1-ylethanesulfonic acid (4-{5-amino-6-[1-(2,6-dichloro-3-fluoro-phenyl)-ethoxy]-pyrazin-2-yl}-phenyl)-amide]"
4,1560,"CC(Oc1nc(-c2ccc(C(=O)O)cc2)cnc1N)c1c(Cl)ccc(F)c1Cl (stereo not shown) [II-145, 4-{5-Amino-6-[1-(2,6-dichloro-3-fluoro-phenyl)-ethoxy)-pyrazin-2-yl)benzoic acid]"
5,150,"CC(Oc1nc(-c2ccc(C(=O)NC[C@@H](O)CN3CCCC3)cc2)cnc1N)c1c(Cl)ccc(F)c1Cl (stereo partly drawn) [II-146, 4-{5-Amino-6-[1-(2,6-dichloro-3-fluoro-phenyl)-ethoxy]-pyrazin-2-yl}-N-((R)-2-hydroxy-3-pyrrolidin-1-yl-propyl)-benzamide]"
6,130,"CC(Oc1nc(-c2ccc(C(=O)N3CCC(NC4CC4)CC3)cc2)cnc1N)c1c(Cl)ccc(F)c1Cl (stereo not shown) [II-147, (4-{5-Amino-6-[1-(2,6-dichloro-3-fluoro-phenyl)-ethoxy]-pyrazin-2-yl}-phenyl)-(4-cyclopropylamino-piperidin-1-yl)-methanone]"
7,130,"CC(Oc1nc(-c2ccc(C(=O)NC[C@@H](O)CN3CCOCC3)cc2)cnc1N)c1c(Cl)ccc(F)c1Cl (stereo partly drawn) [II-149, 4-{5-Amino-6-[1-(2,6-dichloro-3-fluoro-phenyl)-ethoxy]-pyrazin-2-yl}-N-((R)-2-hydroxy-3-morpholin-4-yl-propyl)-benzamide]"
8,220,"CC(Oc1nc(-c2ccc(C(=O)NCCCN3CCCC3)cc2)cnc1N)c1c(Cl)cccc1Cl (stereo not shown) [II-167, 4-{5-Amino-6-[1-(2,6-dichloro-phenyl)-ethoxy]-pyrazin-2-yl}-N-(3-pyrrolidin-1-yl-propyl)-benzamide]"
9,180,"CC(Oc1nc(-c2cccc(C(=O)NC3CCN(C)CC3)c2)cnc1N)c1c(Cl)cccc1Cl (stereo not shown) [II-169, 3-{5-Amino-6-[1-(2,6-dichloro-phenyl)-ethoxy)-pyrazin-2-yl}-N-(1-methyl-piperidin-4-yl)-benzamide]"
10,330,"CC(Oc1nc(-c2cccc(C(=O)NCCN3CCCC3)c2)cnc1N)c1c(Cl)cccc1Cl (stereo not shown) [II-170, 3-{5-Amino-6-[1-(2,6-dichloro-phenyl)-ethoxy]-pyrazin-2-yl}-N-(2-pyrrolidin-1-yl-ethyl)-benzamide]"
11,360,"CC(Oc1nc(-c2cccc(C(=O)N3C[C@@H](C)N[C@@H](C)C3)c2)cnc1N)c1c(Cl)cccc1Cl (stereo partly drawn) [II-171, (3-{5-Amino-6-[1-(2,6-dichloro-phenyl)-ethoxy]-pyrazin-2-yl}-phenyl)-((3R,5S)-3,5-dimethyl-piperazin-1-yl)-methanone]"
12,480,"CC(Oc1nc(-c2cccc(C(=O)NCCN3CCOCC3)c2)cnc1N)c1c(Cl)cccc1Cl (stereo not shown) [II-172, 3-{5-Amino-6-[1-(2,6-dichloro-phenyl)-ethoxy]-pyrazin-2-yl}-N-(2-morpholin-4-yl-ethyl)-benzamide]"
13,280,"CC(=O)N1CCN(CCNC(=O)c2ccc(-c3cnc(N)c(OC(C)c4c(Cl)cccc4Cl)n3)cc2)CC1 (stereo not shown) [II-175, N-[2-(4-Acetyl-piperazin-1-yl)-ethyl]-4-{5-amino-6-[1-(2,6-dichloro-phenyl)-ethoxy]-pyrazin-2-yl}-benzamide]"
14,350,"CC(=O)N1CCN(CCNC(=O)c2cccc(-c3cnc(N)c(OC(C)c4c(Cl)cccc4Cl)n3)c2)CC1 (stereo not shown) [II-176, N-[2-(4-Acetyl-piperazin-1-yl)-ethyl]-3-{5-amino-6-[1-(2,6-dichloro-phenyl)-ethoxy]-pyrazin-2-yl}-benzamide]"

# Continued, compound first:
row,Structure (SMILES),IC50 [nM]
1,"CC(Oc1nc(-c2ccc(NS(=O)(=O)CCN(C)C)cc2)cnc1N)c1c(Cl)ccc(F)c1Cl (stereo not shown) [II-142, 2-Dimethylamino-ethanesulfonic acid (4-{5-amino-6-[1-(2,6-dichloro-3-fluoro-phenyl)-ethoxy]-pyrazin-2-yl}-phenyl)-amide]",220
2,CC(Oc1nc(-c2ccc(C(=O)NC[C@H](O)CN3CCCC3)cc2)cnc1N)c1c(Cl)ccc(F)c1Cl (stereo partly shown) [II-148],120
3,"CC(Oc1nc(-c2ccc(C(=O)NC3CCN(C)CC3)cc2)cnc1N)c1c(Cl)ccc(F)c1Cl (stereo not shown) [II-150, 4-{5-Amino-6-[1-(2,6-dichloro-3-fluoro-phenyl)-ethoxy]-pyrazin-2-yl}-N-(1-methyl-piperidin-4-yl)-benzamide]",68
4,"CC(Oc1nc(-c2ccc(C(=O)N3CCC[C@H]3CN3CCCC3)cc2)cnc1N)c1c(Cl)ccc(F)c1Cl (stereo partly drawn) [II-151, (4-{5-Amino-6-[1-(2,6-dichloro-3-fluoro-phenyl)-ethoxy]-pyrazin-2-yl}-phenyl)-((S)-2-pyrrolidin-1-ylmethyl-pyrrolidin-1-yl)-methanone]",180
5,"CC(Oc1nc(-c2ccc(C(=O)N3CCC(N4CCCC4)CC3)cc2)cnc1N)c1c(Cl)ccc(F)c1Cl (stereo not shown) [II-152, (4-{5-Amino-6-[1-(2,6-dichloro-3-fluoro-phenyl)-ethoxy]-pyrazin-2-yl}-phenyl)-(4-pyrrolidin-1-yl-piperidin-1-yl)-methanone]",110
6,"CC(Oc1nc(-c2ccc(C(=O)NCCN3CCOCC3)cc2)cnc1N)c1c(Cl)ccc(F)c1Cl (stereo not shown) [II-153, 4-{5-Amino-6-[1-(2,6-dichloro-3-fluoro-phenyl)-ethoxy]-pyrazin-2-yl}-N-(2-morpholin-4-yl-ethyl)-benzamide]",102
7,"CC(Oc1nc(-c2ccc(C(=O)N3CCN(C)CC3)cc2)cnc1N)c1c(Cl)ccc(F)c1Cl (stereo not shown) [II-154, (4-{5-Amino-6-[1-(2,6-dichloro-3-fluoro-phenyl)-ethoxy]-pyrazin-2-yl}-phenyl)-(4-methyl-piperazin-1-yl)-methanone]",160
8,"CC(Oc1nc(-c2ccc(C(=O)N3C[C@@H](C)N[C@@H](C)C3)cc2)cnc1N)c1c(Cl)ccc(F)c1Cl (stereo partly drawn) [II-155, (4-{5-Amino-6-[1-(2,6-dichloro-3-fluoro-phenyl)-ethoxy]-pyrazin-2-yl}-phenyl)-((3R,5S)-3,5-dimethyl-piperazin-1-yl)-methanone]",95
9,"CC(Oc1nc(-c2ccc(C(=O)N3CCC(N4CCCC4)CC3)cc2)cnc1N)c1c(Cl)cccc1Cl (stereo not shown) [II-157, (4-{5-Amino-6-[1-(2,6-dichloro-phenyl)-ethoxy]-pyrazin-2-yl}-phenyl)-(4-pyrrolidin-1-yl-piperidin-1-yl)-methanone]",160
10,"CC(Oc1nc(-c2ccc(C(=O)NCCN3CCOCC3)cc2)cnc1N)c1c(Cl)cccc1Cl (stereo not shown) [II-158, 4-{5-Amino-6-[1-(2,6-dichloro-phenyl)-ethoxy]-pyrazin-2-yl}-N-(2-morpholin-4-yl-ethyl)-benzamide]",320
11,"CC(Oc1nc(-c2ccc(C(=O)N3C[C@@H](C)N[C@@H](C)C3)cc2)cnc1N)c1c(Cl)cccc1Cl (stereo partly drawn) [II-159, (4-{5-Amino-6-[1-(2,6-dichloro-phenyl)-ethoxy]-pyrazin-2-yl}-phenyl)-((3R,5S)-3,5-dimethyl-piperazin-1-yl)-methanone]",140
12,"CC(Oc1nc(-c2ccc(C(=O)NC3CCN(C)CC3)cc2)cnc1N)c1c(Cl)cccc1Cl (stereo not shown) [II-160, 4-{5-Amino-6-[1-(2,6-dichloro-phenyl)-ethoxy]-pyrazin-2-yl}-N-(1-methyl-piperidin-4-yl)-benzamide]",120
13,"CC(Oc1nc(-c2ccc(C(=O)N3CCC[C@@H]3CN3CCCC3)cc2)cnc1N)c1c(Cl)cccc1Cl (stereo partly drawn) [II-161, (4-{5-Amino-6-[1-(2,6-dichloro-phenyl)-ethoxy]-pyrazin-2-yl}-phenyl)-((R)-2-pyrrolidin-1-ylmethyl-pyrrolidin-1-yl)-methanone]",160
14,"CC(Oc1nc(-c2ccc(C(=O)N3CCC[C@H]3CN3CCCC3)cc2)cnc1N)c1c(Cl)cccc1Cl (stereo partly drawn) [II-162, (4-{5-Amino-6-[1-(2,6-dichloro-phenyl)-ethoxy]-pyrazin-2-yl}-phenyl)-((S)-2-pyrrolidin-1-ylmethyl-pyrrolidin-1-yl)-methanone]",140
15,"CC(Oc1nc(-c2ccc(C(=O)N3CCN(C)CC3)cc2)cnc1N)c1c(Cl)cccc1Cl (stereo not shown) [II-163, (4-{5-Amino-6-[1-(2,6-dichloro-phenyl)-ethoxy]-pyrazin-2-yl}-phenyl)-(4-methyl-piperazin-1-yl)-methanone]",150
16,"CC(Oc1nc(-c2ccc(C(=O)N3CC[C@@H](N)C3)cc2)cnc1N)c1c(Cl)cccc1Cl (stereo partly drawn) [II-164, (4-{5-Amino-6-[1-(2,6-dichloro-phenyl)-ethoxy]-pyrazin-2-yl}-phenyl)-((R)-3-aminopyrrolidin-1-yl)-methanone]",150
17,"CC(Oc1nc(-c2ccc(C(=O)N3CC[C@H](N)C3)cc2)cnc1N)c1c(Cl)cccc1Cl (stereo partly drawn) [II-165, (4-{5-Amino-6-[1-(2,6-dichloro-phenyl)-ethoxy]-pyrazin-2-yl}-phenyl)-((S)-3-aminopyrrolidin-1-yl)-methanone hydrogen chloride]",100
18,"CC(Oc1nc(-c2ccc(C(=O)NCCN3CCCC3)cc2)cnc1N)c1c(Cl)cccc1Cl (stereo not shown) [II-166, 4-{5-Amino-6-[1-(2,6-dichloro-phenyl)-ethoxy]-pyrazin-2-yl}-N-(2-pyrrolidin-1-yl-ethyl)-benzamide]",110
19,"CC(Oc1nc(-c2cccc(C(=O)N3CCC[C@H]3CN3CCCC3)c2)cnc1N)c1c(Cl)cccc1Cl (stereo partly drawn) [II-173, (3-{5-Amino-6-[1-(2,6-dichloro-phenyl)-ethoxy]-pyrazin-2-yl}-phenyl)-((S)-2-pyrrolidin-1-ylmethyl-pyrrolidin-1-yl)-methanone]",180
20,"CC(Oc1nc(-c2cccc(C(=O)N3CCC(N4CCCC4)CC3)c2)cnc1N)c1c(Cl)cccc1Cl (stereo not shown) [II-174, (3-{5-Amino-6-[1-(2,6-dichloro-phenyl)-ethoxy]-pyrazin-2-yl}-phenyl)-(4-pyrrolidin-1-yl-piperidin-1-yl)-methanone]",170

# From patent US20050009840A1 (SUGEN, INC., priority 2003, published 2005)
